Among the data in US20250171438A1 (Agios Pharmaceuticals, Inc., priority 2022, published 2025) are AC50 values, retold here.

The target of this assay is T1, human PAH with the R408W mutation (Homo sapiens, UniProt P00439, R408W).
T1 construct: expressed in transfected cells
T1 sequence (P00439 1-452 R408W): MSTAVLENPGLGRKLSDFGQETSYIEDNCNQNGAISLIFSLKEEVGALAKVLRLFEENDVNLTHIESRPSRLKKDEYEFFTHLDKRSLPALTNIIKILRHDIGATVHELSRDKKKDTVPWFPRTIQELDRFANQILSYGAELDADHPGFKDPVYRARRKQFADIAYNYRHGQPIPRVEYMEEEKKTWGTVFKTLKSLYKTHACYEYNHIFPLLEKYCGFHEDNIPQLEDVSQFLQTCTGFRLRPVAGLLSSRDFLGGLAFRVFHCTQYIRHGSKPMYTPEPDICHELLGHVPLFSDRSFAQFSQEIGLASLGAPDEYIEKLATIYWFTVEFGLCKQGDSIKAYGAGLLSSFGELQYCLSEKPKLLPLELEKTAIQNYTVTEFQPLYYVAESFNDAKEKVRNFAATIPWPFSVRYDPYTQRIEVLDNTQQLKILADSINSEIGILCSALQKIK
In words: Cell Based Phenylalanine Flux Assay. The following applies: A375 cells expressing human R408W PAH, 13C-Tyrosine by LC-MS, average where tested multiple times. On the set-up: scale not given here.

The mark [1] stands for this setting: 24 hrs compound incubation, read-out: AC50.
[2] abbreviates: 24 hrs with compound, read-out: AC50.

Where two headings read alike, the source gives them in different places. Bounds are passed on as bounds.

As usually defined, the AC50 is the concentration giving half of the maximal activity seen. For `O=C(CC1CC(F)C1)N1CCc2[nH]cnc2[C@H]1c1nc2c(F)cccc2s1` (stereo partly drawn) [Example 1649, (S)-1-(4-(4-fluorobenzo[d]thiazol-2-yl)-6,7-dihydro-1H-imidazo[4,5-c]pyridin-5(4H)-yl)-2-(3-fluorocyclobutyl)ethanone], the half-maximal activity concentration (AC50) under setting [1] was less than 500 nM.

In the case of `O=C(N1CCc2[nH]cnc2[C@H]1c1nc2ccccc2s1)C1(CF)CC1` [Example 1255], the half-maximal activity concentration (AC50) under setting [1] was in the range of 500 to 1000 nM.

Take `CN1CCN(c2nc(C(F)F)c(C(=O)N3CCc4[nH]cnc4[C@@H]3c3nc4c(F)cccc4s3)o2)CC1` [Example 2024, (R)-(4-(difluoromethyl)-2-(4-methylpiperazin-1-yl)oxazol-5-yl)(4-(4-fluorobenzo[d]thiazol-2-yl)-6,7-dihydro-1H-imidazo[4,5-c]pyridin-5(4H)-yl)methanone]: the half-maximal activity concentration (AC50) under setting [1] was in the range of 1000 to 5000 nM.

On to `C[C@H](O)c1nc(C(F)F)c(C(=O)N2CCc3[nH]cnc3[C@@H]2c2nc3ccccc3s2)o1` [Example 2096, ((R)-4-(benzo[d]thiazol-2-yl)-6,7-dihydro-1H-imidazo[4,5-c]pyridin-5(4H)-yl)(4-(difluoromethyl)-2-((S)-1-hydroxyethyl)oxazol-5-yl)methanone], for which, under setting [1], the AC50 is 1000 to 5000 nM.

As for `O=C(c1nnc(-c2c(F)cccc2F)o1)N1CCc2[nH]cnc2[C@@H]1c1nc2ccccc2s1` [Example 1368, (R)-(4-(benzo[d]thiazol-2-yl)-6,7-dihydro-1H-imidazo[4,5-c]pyridin-5(4H)-yl)(5-(2,6-difluorophenyl)-1,3,4-oxadiazol-2-yl)methanone], under setting [1], the half-maximal activity concentration (AC50) was less than 500 nM.

For the compound `O=C(c1c(C(F)(F)F)nn2ccccc12)N1CCc2[nH]cnc2[C@H]1c1nc2ccccc2s1` (single isomer, unassigned), where the note is “24 hrs with compound”, the AC50 result is on record as “E, E”.

As to `O=C(c1cn[nH]c1C(F)F)N1CCc2[nH]cnc2[C@H]1c1nc2c(F)cccc2s1` [Example 1859], the AC50 under setting [1] was less than 500 nM.

Consider `O=C(CCc1nccs1)N1CCc2[nH]cnc2[C@@H]1c1nc2ccc(F)cc2s1` [Example 1030, (R)-1-(4-(6-fluorobenzo[d]thiazol-2-yl)-6,7-dihydro-1H-imidazo[4,5-c]pyridin-5(4H)-yl)-3-(thiazol-2-yl)propan-1-one], for which the AC50 under setting [1] is more than 5000 nM.

Consider `O=C(Cc1ncc(-c2ccccc2)s1)N1CCc2[nH]cnc2C1c1nc2ccccc2s1` (stereo not shown), for which, under setting [2], the AC50 lay within 1000 to 5000 nM.

Consider `O=C(c1cnc(-c2ccccn2)o1)N1CC2(CC2)c2[nH]cnc2[C@@H]1c1nc2ccccc2s1` [Example 1654, (R)-(4′-(benzo[d]thiazol-2-yl)spiro[cyclopropane-1,7′-imidazo[4,5-c]pyridin]-5′(1′H,4′H,6′H)-yl)(2-(pyridin-2-yl)oxazol-5-yl)methanone], for which the half-maximal activity concentration (AC50) under setting [1] was 1000 to 5000 nM.

For `O=C(N1CCC1)N1CCc2[nH]cnc2[C@@H]1c1nc2ccccc2s1` [Example 1692, (R)-azetidin-1-yl(4-(benzo[d]thiazol-2-yl)-6,7-dihydro-1H-imidazo[4,5-c]pyridin-5(4H)-yl)methanone], the AC50 under setting [1] lay in the range of 1000 to 5000 nM.

For `COCCc1ncc(C(=O)N2CCc3[nH]cnc3C2c2nc3ccccc3s2)o1` (stereo not shown), the AC50 under setting [2] was more than 5000 nM.

`CC(C)(O)c1nc(Br)c(C(=O)N2CCc3[nH]cnc3[C@H]2c2nc3ccccc3s2)s1` [Example 2107]: under setting [1], the half-maximal activity concentration (AC50) was less than 500 nM.

Take `Cn1ncc(C(=O)N2CCc3[nH]cnc3[C@H]2c2nc3c(F)cccc3s2)c1C(F)F` [Example 1743, (S)-(5-(difluoromethyl)-1-methyl-1H-pyrazol-4-yl)(4-(4-fluorobenzo[d]thiazol-2-yl)-6,7-dihydro-1H-imidazo[4,5-c]pyridin-5(4H)-yl)methanone]: the AC50 under setting [1] fell in the range of 500 to 1000 nM.

Turning to `N#Cc1ncoc1C(=O)N1CCc2[nH]cnc2[C@H]1c1nc2ccccc2s1` [Example 1583, (S)-5-(4-(benzo[d]thiazol-2-yl)-4,5,6,7-tetrahydro-1H-imidazo[4,5-c]pyridine-5-carbonyl)oxazole-4-carbonitrile], under setting [1], the AC50 is less than 500 nM.

Regarding `O=C(Cc1nccs1)N1CCc2[nH]cnc2[C@@H]1c1nc2cccc(Br)c2s1` [Example 1175, (R)-1-(4-(7-bromobenzo[d]thiazol-2-yl)-6,7-dihydro-1H-imidazo[4,5-c]pyridin-5(4H)-yl)-2-(thiazol-2-yl)ethanone], the AC50 under setting [1] fell in the range of 1000 to 5000 nM.

In the case of `O=C(c1ccno1)N1CCc2[nH]cnc2[C@@H]1c1nc2cc(F)ccc2s1` [Example 2154, (R)-(4-(5-fluorobenzo [d]thiazol-2-yl)-6,7-dihydro-1H-imidazo[4,5-c]pyridin-5(4H)-yl)(isoxazol-5-yl)methanone], under setting [1], the half-maximal activity concentration (AC50) was more than 5000 nM.

As to “(S)-(4-bromothiazol-5-yl)(4-(4- fluorobenzo[d]thiazol-2-yl)-6,7-dihydro-1H)- imidazo[4,5-c]pyridin-5(4H)-yl)methanone [Example 1617]”, the half-maximal activity concentration (AC50) under setting [1] was less than 500 nM.

As for `CC(C)(O)c1nc(Br)c(C(=O)N2CCc3[nH]cnc3[C@H]2c2nc3c(F)cccc3s2)s1` [Example 2093, (S)-(4-bromo-2-(2-hydroxypropan-2-yl)thiazol-5-yl)(4-(4-fluorobenzo[d]thiazol-2-yl)-6,7-dihydro-1H-imidazo[4,5-c]pyridin-5(4H)-yl)methanone], the AC50 under setting [1] was less than 500 nM.

`O=C(c1cnco1)N1CCc2[nH]cnc2[C@H]1c1nc2ccccc2[nH]1` [(S)-(4-(1H-benzo[d]imidazol-2-yl)-1,4,6,7-tetrahydro-5H-imidazo[4,5-c]pyridin-5-yl)(oxazol-5-yl)methanone]: the half-maximal activity concentration (AC50) under setting [2] is 1000 to 5000 nM.

Turning to `Cc1ccc2nc([C@H]3c4nc[nH]c4CCN3C(=O)c3cncs3)sc2c1` [Example 1304, (R)-(4-(6-methylbenzo[d]thiazol-2-yl)-6,7-dihydro-1H-imidazo[4,5-c]pyridin-5(4H)-yl)(thiazol-5-yl)methanone], the AC50 under setting [1] is more than 5000 nM.

For `CC(C)(O)c1nc(C2CC2)c(C(=O)N2CCc3[nH]cnc3[C@H]2c2nc3ccccc3[nH]2)o1` [(S)-(4-(1H-benzo[d]imidazol-2-yl)-6,7-dihydro-1H-imidazo[4,5-c]pyridin-5(4H)-yl)(4-cyclopropyl-2-(2-hydroxypropan-2-yl)oxazol-5-yl)methanone], the concentration at half-maximal activity (AC50) under setting [2] lay within 1000 to 5000 nM.

For `O=C(CCc1nnc(C(F)F)o1)N1CCc2[nH]cnc2C1c1nc2ccccc2s1` (stereo not shown), the AC50 under setting [2] is 1000 to 5000 nM.

With `O=C(CC1CC(F)C1)N1CCc2[nH]cnc2[C@@H]1c1nc2c(F)cccc2s1` (stereo partly drawn) [Example 1650, (R)-1-(4-(4-fluorobenzo[d]thiazol-2-yl)-6,7-dihydro-1H-imidazo[4,5-c]pyridin-5(4H)-yl)-2-(3-fluorocyclobutyl)ethanone], the AC50 under setting [1] was in the range of 1000 to 5000 nM.

Consider `N#Cc1ccn2ncc(C(=O)N3CCc4[nH]cnc4[C@H]3c3nc4ccccc4[nH]3)c2c1` [(S)-3-(4-(1H-benzo[d]imidazol-2-yl)-4,5,6,7-tetrahydro-1H-imidazo[4,5-c]pyridine-5-carbonyl)pyrazolo[1,5-a]pyridine-5-carbonitrile], for which the AC50 under setting [2] was more than 5000 nM.

On to `O=C(CCc1nc(Cl)cs1)N1CCc2[nH]cnc2[C@H]1c1nc2ccccc2s1` [Example 1023], for which the half-maximal activity concentration (AC50) under setting [1] was in the range of 500 to 1000 nM.

As to `O=C(c1cnn(CC(F)(F)F)c1Cl)N1CCc2[nH]cnc2[C@H]1c1nc2c(F)cccc2s1` [Example 1967, (S)-(5-chloro-1-(2,2,2-trifluoroethyl)-1H-pyrazol-4-yl)(4-(4-fluorobenzo[d]thiazol-2-yl)-6,7-dihydro-1H-imidazo[4,5-c]pyridin-5(4H)-yl)methanone], the AC50 under setting [1] was less than 500 nM.

For `CC(O)(c1nc(C(F)(F)F)c(C(=O)N2CCc3[nH]cnc3[C@H]2c2nc3ccccc3s2)o1)C1CC1` (single isomer, unassigned) [Example 1562], the AC50 under setting [1] was less than 500 nM.

With `CC(C)(O)c1nnc(C(=O)N2CC3(CC3)c3[nH]cnc3[C@@H]2c2nc3ccccc3s2)o1` [Example 1695, (R)-(4′-(benzo[d]thiazol-2-yl)spiro[cyclopropane-1,7′-imidazo[4,5-c]pyridin]-5′(1′H,4′H,6′H)-yl)(5-(2-hydroxypropan-2-yl)-1,3,4-oxadiazol-2-yl)methanone], under setting [1], the AC50 was more than 5000 nM.

`CC(C)(F)c1ccc2c(C(=O)N3CCc4[nH]cnc4[C@@H]3c3nc4c(F)cccc4s3)cnn2c1` [Example 1490, (R)-(4-(4-fluorobenzo[d]thiazol-2-yl)-6,7-dihydro-1H-imidazo[4,5-c]pyridin-5(4H)-yl)(6-(2-fluoropropan-2-yl)pyrazolo[1,5-a]pyridin-3-yl)methanone]: under setting [1], the AC50 is 1000 to 5000 nM.

Take `O=C(c1cc2ccccn2c1)N1CCc2[nH]cnc2C1c1nc2ccccc2s1` (stereo not shown): the half-maximal activity concentration (AC50) under setting [2] is more than 5000 nM.

In the case of `Cn1nc(Br)nc1C(=O)N1CCc2[nH]cnc2[C@@H]1c1nc2ccccc2s1` [Example 1978, (R)-(4-(benzo[d]thiazol-2-yl)-6,7-dihydro-1H-imidazo[4,5-c]pyridin-5(4H)-yl)(3-bromo-1-methyl-1H-1,2,4-triazol-5-yl)methanone], the half-maximal activity concentration (AC50) under setting [1] lay in the range of 1000 to 5000 nM.

With `C[C@@H]1CN(C(=O)c2nnc(-c3cnn(C)c3)o2)[C@H](c2nc3ccccc3s2)c2nc[nH]c21` [Example 1750, ((4S,7R)-4-(benzo[d]thiazol-2-yl)-7-methyl-6,7-dihydro-1H-imidazo[4,5-c]pyridin-5(4H)-yl)(5-(1-methyl-1H-pyrazol-4-yl)-1,3,4-oxadiazol-2-yl)methanone], the AC50 under setting [1] lay in the range of 500 to 1000 nM.

For the compound `COCCc1ncc(C(=O)N2CC(C)c3[nH]cnc3C2c2nc3ccccc3s2)o1` [(4R,7R) diastereomer of 2-[5-[2-(2-methoxyethyl)-1,3-oxazole], the AC50 entry (24 hrs with compound) is “E, E”.
